From patent US11873290B2, “Pyridazinone compounds and uses thereof” (Edgewise Therapeutics, Inc., priority 2018, dated 2024)

Molecular target: skeletal myofibrils (myosin ATPase activity)
Test: Skeletal Myofibril ATPase Assay
Type: biochemical
Conditions: PK-LDH coupled, absorbance at 340 nm
Method in brief: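 Skeletal myofibril ATPase measured by PK-LDH-coupled NADH depletion at 340 nm, read every 1.5–2 min for 1 h; pCa buffer with PIPES/CaCl2/EGTA, pH 7.0. Rate taken as max–min absorbance, normalised to 1% DMSO vehicle (100%) and no change (0%); IC50 from four-parameter fit, bottom ≥0.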

SMILES | IC50 [µM]
Cc1noc(Cn2nc(-c3ccc4c(c3)OCCCO4)ccc2=O)n1 [Compound 301, 6-(3,4-dihydro-2H-benzo[b][1,4]dioxepin-7-yl)-2-((3-methyl-1,2,4-oxadiazol-5-yl)methyl)pyridazin-3(2H)-one] | > 100
COC(=O)c1ccc(Cn2nc(-c3ccc(SC)cc3)ccc2=O)o1 [Compound 302, methyl 5-((3-(4-(methylthio)phenyl)-6-oxopyridazin-1(6H)-yl)methyl)furan-2-carboxylate] | 10 to 100
CCOc1ccc(-c2ccc(=O)n(Cc3nc(-c4ccccn4)no3)n2)cc1 [Compound 304, 6-(4-ethoxyphenyl)-2-((3-(pyridin-2-yl)-1,2,4-oxadiazol-5-yl)methyl)pyridazin-3(2H)-one] | < 10
COc1ccc(-c2ccc(=O)n(Cc3nc(-c4ccc(OC)cc4)no3)n2)cc1 [Compound 305, 6-(4-methoxyphenyl)-2-((3-(4-methoxyphenyl)-1,2,4-oxadiazol-5 yl)methyl)pyridazin-3(2H)-one] | < 10
COc1ccc(-c2ccc(=O)n(Cc3nc(-c4ccccn4)no3)n2)cc1 [Compound 306, 6-(4-methoxyphenyl)-2-((3-(pyridin-2-yl)-1,2,4-oxadiazol-5-yl)methyl)pyridazin-3(2H)-one] | 10 to 100
COc1ccc(-c2ccc(=O)n(Cc3cc(=O)n4ccccc4n3)n2)cc1 [Compound 307, 2-((3-(4-methoxyphenyl)-6-oxopyridazin-1(6H)-yl)methyl)-4H-pyrido[1.2-a]pyrimidin-4-one] | 10 to 100
CCOc1ccc(-c2ccc(=O)n(Cc3nc(-c4cccs4)no3)n2)cc1 [Compound 308, 6-(4-ethoxyphenyl)-2-((3-(thiophen-2-yl)-1,2,4-oxadiazol-5-yl)methyl)pyridazin-3(2H)-one] | < 10
COc1ccc(-c2ccc(=O)n(Cc3nc(-c4ccccc4)no3)n2)cc1 [Compound 309, 6-(4-methoxyphenyl)-2-((3-phenyl-1,2,4-oxadiazol-5-yl)methyl)pyridazin-3(2H)-one] | < 10
COc1ccc(-c2ccc(=O)n(Cc3nc(-c4ccc(OC)cc4)no3)n2)cc1 [Compound 310, 6-(4-methoxyphenyl)-2-((3-(4-methoxyphenyl)-1,2,4-oxadiazol-5-yl)methyl)pyridazin-3(2H)-one] | < 10
Cc1ccc(-c2ccc(=O)n(Cc3cc(=O)n4ccccc4n3)n2)cc1 [Compound 311, 2-((6-oxo-3-(p-tolyl)pyridazin-1(6H)-yl)methyl)-4H-pyrido[1,2-a]pyrimidin-4-one] | 10 to 100
Cc1ccc(-c2ccc(=O)n(Cc3nc(-c4ccccc4C)no3)n2)cc1 [Compound 312, 6-(p-tolyl)-2-((3-(o-tolyl)-1,2,4-oxadiaxol-5-yl)methyl)pyridazin-3(2H)-one] | < 10
Cc1ccc(-c2noc(Cn3nc(-c4ccc(Cl)cc4)ccc3=O)n2)cc1 [Compound 313, 6-(4-chlorophenyl)-2-((3-(p-tolyl)-1,2,4-oxadiazol-5-yl)methyl)pyridazin-3(2H)-one] | 10 to 100
Cc1ccc(-c2ccc(=O)n(Cc3nc(-c4cccc(Cl)c4)no3)n2)cc1 [Compound 314, 2-((3-(3-chlorophenyl)-1,2,4-oxadiazol-5-yl)methyl)-6-(p-tolyl)pyridazin-3(2H)-one] | > 100
COc1ccc(-c2ccc(=O)n(Cc3nc(-c4ccc(OC)cc4)no3)n2)cc1 [Compound 315, 6-(4-methoxyphenyl)-2-((3-(4-methoxyphenyl)-1,2,4-oxadiazol-5-yl)methyl)pyridazin-3(2H)-one] | < 10
Cc1nc(Cn2nc(-c3ccc(Cl)cc3)ccc2=O)no1 [Compound 350, 6-(4-chlorophenyl)-2-((5-methyl-1,2,4-oxadiazol-3-yl)methyl)pyridazin-3(2H)-one] | > 100
Cc1ncc(-c2ccc(=O)n(Cc3cncc(F)c3)n2)cn1 [Compound 351] | 10 to 100
C/C=C\c1ncc(-c2ccc(=O)n(Cc3cncc(F)c3)n2)cn1 [Compound 352, (Z)-2-((5-fluoropyridin-3-yl)methyl)-6-(2-(prop-1-en-1-yl)pyrimidin-5-yl)pyridazin-3(2H)-one] | < 10

Tested on: zebrafish model of DMD
Test: not given
Conditions: embryos from zebrafish model of DMD; cited from earlier work

SMILES | Protection from pathological muscle derangement
Cc1ccc(S(=O)(=O)NCc2ccccc2)cc1 [BTS, N-benzyl-p-tolyl-sulfonamide] | protect muscles from pathological muscle derangement
